According to article PMC11472313, “Development of Fragment-Based Inhibitors of the Bacterial Deacetylase LpxC with Low Nanomolar Activity” (Journal of Medicinal Chemistry, 2024):
≈ marks a conversion by molar mass, not a printed value.

What was measured:
[1] = molecular target: T1, E. coli LpxC C63A (Escherichia coli, UniProt P0A725, C63A); experiment: fluorescence-based E. coli LpxC C63A enzyme inhibition assay; assay type: biochemical; conditions: Ki E. coli LpxC C63A, from IC50 via Cheng–Prusoff
T1 construct: made in house; host or cells: E. coli BL21(DE3)
Method: In order to determine the inhibitory activities of the compounds of interest toward E. coli LpxC, a fluorescence-based enzyme assay was deployed, in which the formed deacetylated natural product UDP-3-O-[(R)-3-hydroxymyristoyl]glucosamine (2) is transformed into a fluorescent isoindole with o-phthaldialdehyde and 2-mercaptoethanol.[48],[49] […] The KM of E. coli LpxC C63A was determined experimentally using a mass spectrometry-based LpxC assay (Figure S8, Supporting Information, vide infra).
A fluorescence-based microplate assay for LpxC activity was performed as described by Clements et al.[48] The wells in a black, nonbinding, 96-well fluorescence microplate (Greiner Bio One, Frickenhausen) were filled with 93 μL of 26.9 μM UDP-3-O-[(R)-3-hydroxymyristoyl]-N-acetylglucosamine in assay buffer [40 mM sodium morpholinoethanesulfonic acid (pH 6.0), 80 μM dithiothreitol, 0.02% Brij 35]. In order to assay the inhibitors at final concentrations from 20 nM up to 20 μM, 2 μL of a respective dilution of the compounds in DMSO were added. The addition of 5 μL of a solution of purified LpxC (10 μg mL^–1) in assay buffer led to final concentrations of 25 μM UDP-3-O-[(R)-3-hydroxymyristoyl]-N-acetylglucosamine, 15 nM E. coli LpxC C63A, 2% DMSO, and from 20 nM up to 20 μM inhibitor. The microplate was incubated for 30 min at 37 °C in a plate shaker. Then, the biochemical reaction was stopped by adding 40 μL of 0.625 M sodium hydroxide. The reaction mixture was further incubated for 10 min and neutralized by adding 40 μL of 0.625 M acetic acid. The deacetylated product UDP-3-O-[(R)-3-hydroxymyristoyl]glucosamine was converted into a fluorescing isoindole by adding 120 μL of an o-phthaldialdehyde-2-mercaptoethanol solution, which was prepared by dissolving 10 mg of o-phthaldialdehyde in 1 mL of methanol, diluting the mixture with 24 mL of a sodium borate buffer (0.1 M), and finally adding 2.5 μL of 2-mercaptoethanol.[49] Fluorescence was measured with a TriStar^2 S LB 942 plate reader (Berthold, Bad Wildbad) at 340 nm excitation and 460 nm emission wavelengths. Each assay was performed at least three times on separate days. The IC50 values were calculated via Probit-log concentration graphs with the aid of the software Origin and were subsequently converted into Ki values using the Cheng–Prusoff equation.[75],[76]

[2] = tested on: E. coli BL21(DE3); experiment: disc diffusion assay; assay type: cell-based; conditions: 0.15 μmol per 6 mm disc
Method: (§1) Besides measuring the inhibitory activities toward E. coli LpxC C63A, the antibacterial activities of the synthesized hydroxamic acids were evaluated by determining their minimal inhibitory concentrations (MIC) in broth dilution tests as well as by performing disc diffusion assays (Table 1).
(§2) The disc diffusion assays against E. coli BL21(DE3) and the defective strain E. coli D22 were performed as follows: liquid cultures of the bacteria were grown overnight in lysogeny broth (LB)[73] at 37 °C and 200 rpm. 150 μL of an overnight cell suspension was spread evenly onto LB agar plates. 0.15 μmol of each compound (dissolved in 10 or 15 μL DMSO) were applied onto circular filter paper (Ø = 6 mm, Cytiva). Pure DMSO, serving as a negative control, and CHIR-090, serving as a positive control, were also spotted. The agar plates were incubated overnight at 37 °C, and the diameter of the zone of growth inhibition was measured for each compound. Each assay was performed at least three times on separate days.

[3] = tested on: E. coli D22; experiment: disc diffusion assay; assay type: cell-based; conditions: 0.15 μmol per 6 mm disc
Method: as §1, §2

[4] = tested on: E. coli BL21(DE3); experiment: MIC, broth microdilution; assay type: cell-based; conditions: Escherichia coli, 20 h, 37 °C, LB
Method: as §1
(§3) The MIC values of the compounds were determined by means of the microdilution method using 96-well plates.
(§4) The overnight suspension was diluted 1:1000 in fresh LB. 10 μL of a 2-fold dilution series of the compounds in DMSO and 90 μL of LB were dispensed to each well of a 96-well plate. Then, 100 μL of the inoculated medium was added, resulting in 5 × 10^5 cfu mL^–1, 5% DMSO, and a final concentration range of the test compounds between 64 and 0.016 μg mL^–1. The plates were incubated for 20 h at 37 °C. The MIC was defined as the lowest concentration of the compounds that prevented visible growth after incubation. Each assay was performed at least three times on separate days.

[5] = tested on: E. coli D22; experiment: MIC, broth microdilution; assay type: cell-based; conditions: Escherichia coli, 20 h, 37 °C, LB
Method: as §1, §3, §4

[6] = molecular target: T2, LasB (Pseudomonas aeruginosa, UniProt Q02RJ6); experiment: FRET-based LasB in vitro inhibition assay; assay type: biochemical, P. aeruginosa PA14
T2 construct: The elastase LasB of P. aeruginosa is a secreted metalloprotease; endogenous in cells; host or cells: P. aeruginosa PA14 culture supernatant
Method: Purification of LasB from P. aeruginosa PA14 supernatant and the subsequent performance of the FRET-based in vitro inhibition assay was performed as described previously.[66] The TACE (ADAM-17) inhibitor screening kit was purchased from Sigma-Aldrich (Saint Louis, MO). MMPs 1–3 along with the SensoLyte 520 Generic MMP Activity Kit Fluorimetric were purchased from AnaSpec (Fremont, CA, USA). The assays were performed according to the guidelines of the respective manufacturer. Fluorescence signals were measured using a CLARIOstar plate reader (BMG Labtech, Ortenberg, Germany).

T1 sequence (P0A725 whole entry C63A): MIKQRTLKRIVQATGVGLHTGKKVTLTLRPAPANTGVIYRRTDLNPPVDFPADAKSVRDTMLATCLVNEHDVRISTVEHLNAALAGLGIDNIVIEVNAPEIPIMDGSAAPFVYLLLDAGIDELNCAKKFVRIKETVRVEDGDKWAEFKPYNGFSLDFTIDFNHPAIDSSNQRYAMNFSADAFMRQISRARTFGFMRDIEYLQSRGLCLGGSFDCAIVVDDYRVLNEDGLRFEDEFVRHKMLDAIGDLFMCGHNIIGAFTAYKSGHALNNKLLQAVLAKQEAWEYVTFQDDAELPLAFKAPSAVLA
T2 sequence (Q02RJ6 198-498): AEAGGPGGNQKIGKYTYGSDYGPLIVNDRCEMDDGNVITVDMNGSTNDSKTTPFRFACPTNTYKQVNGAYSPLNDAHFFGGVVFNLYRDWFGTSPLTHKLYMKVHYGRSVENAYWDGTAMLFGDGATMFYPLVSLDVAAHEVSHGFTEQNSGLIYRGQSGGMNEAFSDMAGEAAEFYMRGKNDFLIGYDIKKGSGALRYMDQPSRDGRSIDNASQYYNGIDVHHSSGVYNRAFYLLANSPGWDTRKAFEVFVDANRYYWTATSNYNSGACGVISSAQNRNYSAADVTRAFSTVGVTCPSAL

Compound	Ki [1] [nM]	Inhibition zone E. coli BL21(DE3) [2] [mm]	Inhibition zone E. coli D22 [3] [mm]	MIC [4] [µg/mL]	MIC [5] [µg/mL]	LasB Inhibition at 20 μM ([6]; 20 μM)	inhibition at 20 µM ([6]; read-out: LasB Inhibition at 20 μM) [%]
O=C(NO)[C@@H](COCc1ccccc1)OCc1ccc(C#Cc2ccc(CN3CCOCC3)cc2)cc1 [(R)-11a, (R)-3-(Benzyloxy)-N-hydroxy-2-[(4-{[4-(morpholinomethyl)phenyl]ethynyl}benzyl)oxy]propanamide]	3620 ± 640	≤6	15.7 ± 1.2	> 32	2 (≈ 4 µM)	–	–
O=C(NO)[C@@H](CNCc1ccccc1)OCc1ccc(C#Cc2ccc(CN3CCOCC3)cc2)cc1 [(R)-12a, (R)-3-(Benzylamino)-N-hydroxy-2-[(4-{[4-(morpholinomethyl)phenyl]ethynyl}benzyl)oxy]propanamide]	5900 ± 2020	10.7 ± 1.2	20.0 ± 1.8	32 (≈ 64 µM)	4 (≈ 8.01 µM)	–	–
O=C(NC[C@@H](OCc1ccc(C#Cc2ccc(CN3CCOCC3)cc2)cc1)C(=O)NO)c1ccccc1 [(R)-13a, (R)-N-{3-(Hydroxyamino)-2-[(4-{[4-(morpholinomethyl)phenyl]ethynyl}benzyl)oxy]-3-oxopropyl}benzamide]	2560 ± 1080	9.7 ± 0.6	18.0 ± 2.0	–	4 (≈ 7.79 µM)	–	–
O=C(NC[C@@H](OCc1ccc(C#Cc2ccc(CN3CCOCC3)cc2)cc1)C(=O)NO)c1ccc(-c2ccccc2)cc1 [(R)-13b]	> 2540	≤6	≤6	> 16	> 16	–	–
O=C(NC[C@@H](OCc1ccc(C#Cc2ccc(CN3CCOCC3)cc2)cc1)C(=O)NO)c1cccc(-c2ccccc2)c1 [(R)-13c]	> 2540	≤6	≤6	> 16	> 16	–	–
O=C(NC[C@@H](OCc1ccc(C#Cc2ccc(CN3CCOCC3)cc2)cc1)C(=O)NO)c1ccc(Oc2ccccc2)cc1 [(R)-13d]	> 2540	≤6	≤6	> 16	> 16	–	–
O=C(NC[C@@H](OCc1ccc(C#Cc2ccc(CN3CCOCC3)cc2)cc1)C(=O)NO)c1ccc2ccccc2n1 [(R)-13e]	> 2540	≤6	12.7 ± 1.6	> 16	8 (≈ 14.2 µM)	–	–
O=C(NC[C@@H](OCc1ccc(C#Cc2ccc(CN3CCOCC3)cc2)cc1)C(=O)NO)c1cnc2ccccc2c1 [(R)-13f]	> 2540	≤6	10.3 ± 1.2	> 16	> 16	–	–
O=C(NC[C@@H](OCc1ccc(C#Cc2ccc(CN3CCOCC3)cc2)cc1)C(=O)NO)c1cc2ccccc2[nH]1 [(R)-13g]	> 2540	≤6	9.0 ± 1.0	> 16	16 (≈ 29 µM)	–	–
O=C(NC[C@@H](OCc1ccc(C#Cc2ccc(CN3CCOCC3)cc2)cc1)C(=O)NO)c1ccc2[nH]ccc2c1 [(R)-13j]	1150 ± 317	≤6	11.7 ± 1.2	> 16	16 (≈ 29 µM)	–	–
O=C(NC[C@@H](OCc1ccc(C#Cc2ccc(CN3CCOCC3)cc2)cc1)C(=O)NO)c1cc(-c2ccccc2)[nH]n1 [(R)-13m]	> 2540	≤6	9.7 ± 1.3	> 16	> 16	–	–
Cc1noc(C)c1C(=O)NC[C@@H](OCc1ccc(C#Cc2ccc(CN3CCOCC3)cc2)cc1)C(=O)NO [(R)-13n]	> 2540	≤6	16.3 ± 1.6	> 16	8 (≈ 15 µM)	no inhibitory activity	< 10
